13 compounds from patent US8871753B2, “Macrocyclic compounds and their use as kinase inhibitors” (Incyte Corporation, priority 2008, dated 2014) can be followed below.

The IC50 is the concentration needed to halve the response being measured.

Assay type in all cases: biochemical
For test [1], the target named is T1, Recombinant Human Anaplastic Lymphoma Kinase (Homo sapiens, UniProt Q9UM73).
T1 construct: purchased Invitrogen, Carlsbad, Calif
The experiment in a line: ALK HTRF kinase assay. The source says: Materials: Recombinant Human Anaplastic Lymphoma Kinase was purchased from Invitrogen, Carlsbad, Calif. Peptide substrate (Biotin-[…]-amide) was custom synthesized at EZBiolab, Westfield, Ind. Streptavidin conjugated SureLight-Allophycocyania and LANCE Eu-W1024 labeled anti-phosphotyrosine antibody were from Perkin-Elmer, Boston, Mass. Microplates were from Corning Inc., Acton, Mass. All other reagents were from Sigma, St. Louis, Mo.
Plates were read in Fusion α-FP instrument (Perkin-Elmer). […] Signal=Bottom+(Top−Bottom)/(1+10^((Log(IC50)−Log [I])*Hill Slope) Bottom and Top refer to the post and pre-transition baselines, respectively.
In general terms: In TR-FRET formats the signal depends on donor and acceptor labels being close together.

Test [2] concerns the target T2, human JAK2 (a.a. 828-1132) (Homo sapiens, UniProt O60674).
T2 construct: JAK2 (a.a. 828-1132); His tag (N); made in house; host or cells: insect cells (baculovirus)
As to the kind of experiment: In vitro JAK kinase assay (HTRF, phosphorylation of a biotinylated peptide), JAK2. Summed up: (§1)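 Kinase activity was measured as phosphorylation of a biotinylated peptide, with ATP at 90 μM for JAK1, 30 μM for JAK2 and 3 μM for JAK3. Reactions ran 1 hr at room temperature, were stopped with EDTA plus SA-APC and Eu-Py20, and were read by HTRF after 40 minutes of antibody binding.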

For test [3], the target named is T3, human JAK1 (a.a. 837-1142) (Homo sapiens, UniProt P23458).
T3 construct: human JAK1 (a.a. 837-1142); His tag (N); made in house; host or cells: insect cells (baculovirus)
As to the kind of experiment: In vitro JAK kinase assay (HTRF, phosphorylation of a biotinylated peptide), JAK1. As to conditions: read-out: JAK1 IC50. Summed up:
as §1

A further test has as its target TYK2 (Homo sapiens, UniProt P29597). As to the kind of experiment: TYK2 kinase inhibition (Table A1). To be noted: Table B1.
Where [4] appears, read: compound at 500 nM or 1 mM, 90 μM ATP.
Setting [5] is: method AA1 (30 μM ATP) or AA2 (1000 μM ATP), not stated per value.
Setting [6] is: method AA1 (90 μM ATP) or AA2 (1000 μM ATP), not stated per value.
The mark [7] stands for this setting: compound at a concentration of 500 nM or 1 mM (not specified), cells shown as percentage.

Structures can show the parent of a compound that is named as a salt. Where two headings read alike, the source gives them in different places. Some results are limits rather than exact numbers.

Chain of TYK2 (P29597 whole entry): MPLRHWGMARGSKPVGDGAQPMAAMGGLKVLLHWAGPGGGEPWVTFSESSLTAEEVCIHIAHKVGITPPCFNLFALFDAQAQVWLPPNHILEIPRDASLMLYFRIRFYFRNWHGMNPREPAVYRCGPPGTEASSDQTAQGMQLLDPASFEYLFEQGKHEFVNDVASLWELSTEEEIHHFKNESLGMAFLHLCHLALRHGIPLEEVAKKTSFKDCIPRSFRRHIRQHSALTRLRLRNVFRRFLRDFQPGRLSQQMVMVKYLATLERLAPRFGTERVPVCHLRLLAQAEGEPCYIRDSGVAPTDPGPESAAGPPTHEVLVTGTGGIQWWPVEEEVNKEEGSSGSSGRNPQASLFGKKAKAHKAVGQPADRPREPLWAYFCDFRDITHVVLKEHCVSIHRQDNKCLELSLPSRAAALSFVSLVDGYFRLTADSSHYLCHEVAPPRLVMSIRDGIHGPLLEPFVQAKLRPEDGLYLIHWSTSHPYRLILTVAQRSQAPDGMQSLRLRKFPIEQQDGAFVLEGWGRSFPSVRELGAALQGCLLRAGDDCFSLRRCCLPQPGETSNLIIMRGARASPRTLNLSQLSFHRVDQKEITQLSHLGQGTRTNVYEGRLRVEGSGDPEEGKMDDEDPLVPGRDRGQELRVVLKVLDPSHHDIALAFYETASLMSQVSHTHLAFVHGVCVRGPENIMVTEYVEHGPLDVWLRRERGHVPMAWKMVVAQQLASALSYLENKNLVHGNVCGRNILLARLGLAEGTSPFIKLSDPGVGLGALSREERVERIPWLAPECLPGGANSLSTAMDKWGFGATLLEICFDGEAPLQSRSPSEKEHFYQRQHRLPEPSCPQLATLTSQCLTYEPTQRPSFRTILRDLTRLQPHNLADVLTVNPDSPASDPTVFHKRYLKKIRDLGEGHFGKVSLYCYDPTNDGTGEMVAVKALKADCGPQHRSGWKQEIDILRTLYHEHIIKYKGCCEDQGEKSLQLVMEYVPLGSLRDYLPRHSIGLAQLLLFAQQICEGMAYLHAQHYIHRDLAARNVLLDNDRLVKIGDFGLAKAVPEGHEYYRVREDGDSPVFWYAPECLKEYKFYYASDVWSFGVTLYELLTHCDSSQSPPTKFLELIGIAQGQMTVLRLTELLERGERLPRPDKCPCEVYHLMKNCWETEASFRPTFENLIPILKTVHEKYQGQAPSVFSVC
T2 sequence (O60674 828-1132): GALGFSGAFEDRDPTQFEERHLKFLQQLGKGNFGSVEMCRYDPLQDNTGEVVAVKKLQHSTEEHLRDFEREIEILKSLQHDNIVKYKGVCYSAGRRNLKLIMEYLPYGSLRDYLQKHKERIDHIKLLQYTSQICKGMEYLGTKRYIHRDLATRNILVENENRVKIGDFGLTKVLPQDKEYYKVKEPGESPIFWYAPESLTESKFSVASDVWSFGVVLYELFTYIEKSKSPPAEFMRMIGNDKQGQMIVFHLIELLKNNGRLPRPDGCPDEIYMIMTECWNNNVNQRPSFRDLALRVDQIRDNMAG
T3 sequence (P23458 849-1154): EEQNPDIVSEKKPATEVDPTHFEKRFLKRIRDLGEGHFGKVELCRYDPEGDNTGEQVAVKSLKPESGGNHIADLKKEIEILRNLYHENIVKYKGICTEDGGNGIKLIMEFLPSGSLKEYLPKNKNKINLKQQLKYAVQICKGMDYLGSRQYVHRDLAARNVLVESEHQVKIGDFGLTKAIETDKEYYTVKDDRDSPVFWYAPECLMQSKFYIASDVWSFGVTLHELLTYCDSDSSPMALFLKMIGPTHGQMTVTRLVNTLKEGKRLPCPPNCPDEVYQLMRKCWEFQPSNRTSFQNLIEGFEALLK
T1 sequence (Q9UM73 19-1620): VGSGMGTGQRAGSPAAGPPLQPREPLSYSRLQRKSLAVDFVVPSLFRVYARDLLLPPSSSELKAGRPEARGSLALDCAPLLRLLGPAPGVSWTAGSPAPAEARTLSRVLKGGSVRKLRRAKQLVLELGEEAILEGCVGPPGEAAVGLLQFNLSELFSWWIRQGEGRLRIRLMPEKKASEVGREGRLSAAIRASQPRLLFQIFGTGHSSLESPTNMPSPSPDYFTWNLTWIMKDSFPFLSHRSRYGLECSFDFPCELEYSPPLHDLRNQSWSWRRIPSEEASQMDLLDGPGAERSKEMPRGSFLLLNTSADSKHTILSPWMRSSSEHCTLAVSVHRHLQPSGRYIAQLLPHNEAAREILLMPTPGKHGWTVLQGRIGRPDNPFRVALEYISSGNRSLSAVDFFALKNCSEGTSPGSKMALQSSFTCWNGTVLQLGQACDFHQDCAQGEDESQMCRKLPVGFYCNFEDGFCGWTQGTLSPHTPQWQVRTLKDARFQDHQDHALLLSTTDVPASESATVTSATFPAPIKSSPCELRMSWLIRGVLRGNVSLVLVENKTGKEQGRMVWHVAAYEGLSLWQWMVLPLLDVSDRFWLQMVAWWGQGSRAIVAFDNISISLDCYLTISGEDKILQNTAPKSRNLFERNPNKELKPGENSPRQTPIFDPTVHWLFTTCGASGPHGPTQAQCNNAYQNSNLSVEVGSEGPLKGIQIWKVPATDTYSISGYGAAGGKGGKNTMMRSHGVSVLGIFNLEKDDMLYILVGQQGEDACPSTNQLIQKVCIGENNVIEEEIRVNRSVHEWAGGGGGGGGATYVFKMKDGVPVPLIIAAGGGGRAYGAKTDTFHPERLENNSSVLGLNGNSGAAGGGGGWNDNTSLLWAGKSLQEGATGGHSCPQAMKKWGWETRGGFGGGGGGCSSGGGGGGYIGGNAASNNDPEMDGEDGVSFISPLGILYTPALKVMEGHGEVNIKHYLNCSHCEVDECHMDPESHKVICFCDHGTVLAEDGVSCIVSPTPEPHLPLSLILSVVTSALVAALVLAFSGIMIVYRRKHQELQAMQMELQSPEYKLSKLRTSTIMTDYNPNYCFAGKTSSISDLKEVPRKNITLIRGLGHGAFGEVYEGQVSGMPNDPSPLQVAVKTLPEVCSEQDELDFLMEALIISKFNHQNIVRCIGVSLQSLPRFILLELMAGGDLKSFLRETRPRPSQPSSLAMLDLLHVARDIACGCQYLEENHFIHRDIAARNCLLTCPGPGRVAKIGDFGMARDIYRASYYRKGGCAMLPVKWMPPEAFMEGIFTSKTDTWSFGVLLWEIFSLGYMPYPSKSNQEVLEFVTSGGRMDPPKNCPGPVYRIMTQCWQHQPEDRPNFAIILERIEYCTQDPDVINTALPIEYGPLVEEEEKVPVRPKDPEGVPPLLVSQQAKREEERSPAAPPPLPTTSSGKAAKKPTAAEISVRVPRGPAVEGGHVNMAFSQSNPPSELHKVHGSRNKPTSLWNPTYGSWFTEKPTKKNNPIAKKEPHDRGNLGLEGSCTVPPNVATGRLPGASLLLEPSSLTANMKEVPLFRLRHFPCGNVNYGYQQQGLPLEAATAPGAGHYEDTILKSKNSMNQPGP

With `O=C(CC1CCN(c2nccs2)CC1)Nc1ccc2cc1CCc1cncc(c1)Nc1ncc(Cl)c(n1)N2` [Example A159, N-[6-Chloro-2,4,8,18,22-pentaazatetracyclo[14.3.1.1(3,7).1(9,13)]docosa-1(20),3(22),4,6,9(21),10,12,16,18-nonaen-12-yl]-2-[1-(1,3-thiazol-2-yl)piperidin-4-yl]acetamide tris(trifluoroacetate)], in test [1] (setting [4]), the “ALK % of inhibition at a concentration of 500 nM or 1 mM” value (from here on “ALK % of inhibition”) was determined as 24%. Besides, the IC50 in test [2] (setting [5]) amounted to 87 nM; in test [3] (setting [6]), 3.6 nM.
Turning to `Cc1occc1C(=O)N1CCC(CC(=O)Nc2ccc3cc2CCc2cncc(c2)Nc2ncc(Cl)c(n2)N3)CC1` [Example A160, N-[6-Chloro-2,4,8,18,22-pentaazatetracyclo[14.3.1.1(3,7).1(9,13)]docosa-1(20),3(22),4,6,9(21),10,12,16,18-nonaen-12-yl]-2-[1-(2-methyl-3-furoyl)piperidin-4-yl]acetamide bis(trifluoroacetate)], the “ALK % of inhibition” value in test [1] (setting [4]) stood at 19%. Also, the half-inhibitory concentration (IC50) was found to be 271 nM in test [2] (setting [5]) and 5 nM in test [3] (setting [6]).
For `Cc1ccoc1C(=O)N1CCC(CC(=O)Nc2ccc3cc2CCc2cncc(c2)Nc2ncc(Cl)c(n2)N3)CC1` [Example A161, N-[6-Chloro-2,4,8,18,22-pentaazatetracyclo[14.3.1.1(3,7).1(9,13)]docosa-1(20),3(22),4,6,9(21),10,12,16,18-nonaen-12-yl]-2-[1-(3-methyl-2-furoyl)piperidin-4-yl]acetamide bis(trifluoroacetate)] the same measures were 27%, 300 nM and 15 nM.
In the same order, the values of `Cc1ccc(C(=O)N2CCC(CC(=O)Nc3ccc4cc3CCc3cncc(c3)Nc3ncc(Cl)c(n3)N4)CC2)o1` [Example A162, N-[6-Chloro-2,4,8,18,22-pentaazatetracyclo[14.3.1.1(3,7).1(9,13)]docosa-1(20),3(22),4,6,9(21),10,12,16,18-nonaen-12-yl]-2-[1-(5-methyl-2-furoyl)piperidin-4-yl]acetamide bis(trifluoroacetate)] are 33%, 289 nM and 8.2 nM.
As to `Cn1ccnc1C(=O)N1CCC(CC(=O)Nc2ccc3cc2CCc2cncc(c2)Nc2ncc(Cl)c(n2)N3)CC1` [Example A164, N-[6-Chloro-2,4,8,18,22-pentaazatetracyclo[14.3.1.1(3,7).1(9,13)]docosa-1(20),3(22),4,6,9(21),10,12,16,18-nonaen-12-yl]-2-{1-[(1-methyl-1H-imidazol-2-yl)carbonyl]piperidin-4-yl}acetamide bis(trifluoroacetate)], the “ALK % of inhibition” value in test [1] (setting [4]) was 14%. Also, the IC50 in test [2] (setting [5]) was 175 nM; in test [3] (setting [6]) it was 5.3 nM.
In the same order, the values of `Cc1nocc1C(=O)N1CCC(CC(=O)Nc2ccc3cc2CCc2cncc(c2)Nc2ncc(Cl)c(n2)N3)CC1` [Example A165, N-[6-Chloro-2,4,8,18,22-pentaazatetracyclo[14.3.1.1(3,7).1(9,13)]docosa-1(20),3(22),4,6,9(21),10,12,16,18-nonaen-12-yl]-2-{1-[(3-methylisoxazol-4-yl)carbonyl]piperidin-4-yl}acetamide bis(trifluoroacetate)] are 23%, > 1000 nM and 64 nM.
For `Cc1nonc1C(=O)N1CCC(CC(=O)Nc2ccc3cc2CCc2cncc(c2)Nc2ncc(Cl)c(n2)N3)CC1` [Example A166, N-[6-Chloro-2,4,8,18,22-pentaazatetracyclo[14.3.1.1(3,7).1(9,13)]docosa-1(20),3(22),4,6,9(21),10,12,16,18-nonaen-12-yl]-2-{1-[(4-methyl-1,2,5-oxadiazol-3-yl)carbonyl]piperidin-4-yl}acetamide bis(trifluoroacetate)] the same measures were 32%, 300 nM and 6.5 nM.
In the same order, the values of `Nc1nonc1C(=O)N1CCC(CC(=O)Nc2ccc3cc2CCc2cncc(c2)Nc2ncc(Cl)c(n2)N3)CC1` [Example A167, 2-{1-[(4-Amino-1,2,5-oxadiazol-3-yl)carbonyl]piperidin-4-yl}-N-[6-chloro-2,4,8,18,22-pentaazatetracyclo[14.3.1.1(3,7).1(9,13)]docosa-1(20),3(22),4,6,9(21),10,12,16,18-nonaen-12-yl]acetamide tris(trifluoroacetate)] are 33%, 59 nM and 0.6 nM.
For the compound `O=C(CC1CCN(C(=O)c2ccns2)CC1)Nc1ccc2cc1CCc1cncc(c1)Nc1ncc(Cl)c(n1)N2` [Example A168, N-[6-Chloro-2,4,8,18,22-pentaazatetracyclo[14.3.1.1(3,7).1(9,13)]docosa-1(20),3(22),4,6,9(21),10,12,16,18-nonaen-12-yl]-2-[1-(isothiazol-5-ylcarbonyl)piperidin-4-yl]acetamide bis(trifluoroacetate)], the “ALK % of inhibition” value in test [1] (setting [4]) is given as 27%. Moreover, the IC50 in test [3] (setting [6]) was 22 nM.
With `O=S(=O)(Nc1ccc2cc1CCc1cccc(c1)Nc1ncc(Cl)c(n1)N2)c1ccccc1C(F)(F)F` [Example B164, N-[6-Chloro-2,4,8,22-tetraazatetracyclo[14.3.1.1(3,7).1(9,13)]docosa-1(20), 3(22),4,6,9(21),10,12,16,18-nonaen-12-yl]-2-(trifluoromethyl)benzenesulfonamide trifluoroacetate], the “ALK % of inhibition” value in test [1] (setting [7]) was 4.6%. In addition, the values for the half-inhibitory concentration (IC50) (at TYK2; in test [2] (Table B1); in test [3] (Table B1)) were 8.1 nM, 8.4 nM and 8 nM, respectively.
In the same order, the values of `CC(C)(C)OC(=O)N1CCC(NC(=O)Nc2ccc3cc2CCc2cccc(c2)Nc2ncc(Cl)c(n2)N3)CC1` [Example B180, tert-Butyl 4-[({[6-chloro-2,4,8,22-tetraazatetracyclo[14.3.1.1(3,7).1(9,13)]docosa-1(20),3(22),4,6,9(21),10,12,16,18-nonaen-12-yl]amino}carbonyl)amino]piperidine-1-carboxylate] are 3.5%, 450 nM, 97 nM and 91 nM.
In the same order, the values of `CC(=O)NCCNC(=O)Nc1ccc2cc1CCc1cccc(c1)Nc1ncc(Cl)c(n1)N2` [Example B186, N-{2-[({[6-Chloro-2,4,8,22-tetraazatetracyclo[14.3.1.1(3,7).1(9,13)]docosa-1(20),3(22),4,6,9(21),10,12,16,18-nonaen-12-yl]amino}carbonyl)amino]ethyl}acetamide trifluoroacetate] are 21%, 9.6 nM, 8.2 nM and 4 nM.
`NC1CCN(c2ccnc(Nc3ccc4cc3CCc3cncc(c3)Nc3ncc(Cl)c(n3)N4)n2)CC1` [Example B282, N-[4-(4-Aminopiperidin-1-yl)pyrimidin-2-yl]-6-chloro-2,4,8,18,22-pentaazatetracyclo[14.3.1.1(3,7).1(9,13)]docosa-1(20),3(22),4,6,9(21),10,12,16,18-nonaen-12-amine tetrakis(trifluoroacetate)]: in test [1] (setting [7]), the “ALK % of inhibition” value is recorded as 0%. Also, the IC50 in test [2] (Table B1) and in test [3] (Table B1) was > 1000 nM throughout.
